Data reported in patent US12505549B1, “Microscopy image analyses for disease modeling” (Insitro, Inc., priority 2020, dated 2025).

Key:
Assay type in all cases: cell-based
[1] = tested on: HepG2 and A549 cell lines; experiment: Cell painting morphological manifold of compound-treated cancer cell lines (deep CNN); details: for clustering in manifold by phenotypic effect (FIG. 16H): previously unseen drugs versus previously seen drugs; for clustering in morphological embedding (FIGS. 18A, 18B): 48 hours incubation, held-out versus training compounds
Description: Immortalized cancer cell lines A549 and HepG2 were cultured in T150 flasks and harvested above 60% confluency. The cells were counted on a cell counter (Countess by ThermoFisher) the cell suspension was adjusted to 2000 cells per 50 μL well of a 384 well PDL coated Cell Carrier Ultra (Perkin Elmer) plates. The cells were incubated overnight in a 37 C 5% CO2 incubator and then dosed with our compound collection (at multiple concentrations in log space) in DMSO with a Labcyte Echo from Echo qualified PP2.0 plates. After dosing the cells were incubated for 48 hours in a 37 C 5% CO2 incubator. After the incubation period the plates were stained with Mito-tracker by removing the cell media, washing with PBS on a EL406 plate washer (Biotek), then adding diluted 1 mM stock concentration mitotracker dye in cell culture media to each well with a PRIME liquid handler (HighRes Biosciences). The plates were incubated for 30 minutes and then washed 1× with PBS. Formaldehyde was added to each well of each plate to fix the cells and incubated for 20 minutes and then washed 5× with PBS. 0.1% Triton in PBS was added to the plates and incubated for 15 minutes then washed 2× with PBS and a stain mixture was added to all wells of the plates. The stain mixture included 5 μg/mL Hoechst, 100 μg/mL Concanavalin Alexa Fluor 488 conjugate, 3 uM SYTO 14 green fluorescent nucleic acid stain, 5 uL/mL Phalloidin/Alexa Fluor 568 conjugate, and 1.5 μg/mL Wheat Germ Agglutinin Alexa Fluor 555 conjugate in HBSS with BSA. The plates were incubated for 30 minutes with the stain solution and then washed 4× with PBS. The plates were then imaged in a Perkin Elmer Opera Phenix microscope with 16 images taken per well for all stain wavelengths.
This is a classification task where the goal is to identify which compound was used to perturb the cells in a single well. A single well is split into 16 different fields of views (FOV) which are captured by the microscope. The raw FOV images were preprocessed by correcting the illumination. The FOV images were further cropped into smaller squares so that we can fit into memory during the training of deep convolutional neural network (CNN) models. The Hoechst channel was used to detect the nucleus and then make a square around the detected nucleus.
A deep convolutional neural network was implemented to model the classification task. It was a 150-way classification task. The residual networks (ResNets) was used as the base feature extractor network with a fully connected linear network on top to perform the classification. Standard augmentations were implemented which improved the performance and removed experimental biases. For example, intensity based augmentations like gamma contrast are helpful in removing experimental biases (batch effects). For the mechanism of action identification, some compounds were omitted (˜30 compounds out of 150) during training. During inference, the unseen compounds were embedded closer to the expected mechanism of action cluster along with the seen compounds. FIG. 18A depicts example embeddings with similar drugs clustered more closely together. Here, lovastatin is a held out, unseen drug whereas atorvastatin is a drug used for training. […] In accordance with the methodology of Example 11 (e.g., FIGS. 16A-16D) described above, using embeddings/predictions, the candidate therapy is analyzed to predict its effect (e.g., effect in reverting disease phenotype back to healthy), and further validated in vitro.

[2] = tested on: knockout treated cells; experiment: Microscopy tile embeddings (deep neural network, UMAP) of WT and KO lines with treatment; details: UMAP projector calculated on untreated WT/KO tile embeddings
Excerpt: FIG. 16C depicts an example embedding showing phenotypic distinction between wild type and knockout cells. FIG. 16C was generated by projecting embeddings extracted from a deep neural network down to two dimensions using UMAP. The neural network model was trained in a supervised manner to discriminate between sick/healthy based on labels for WT and KO lines respectively. Each point in the figure corresponds to a tile of the original microscopy image. The points represented here are only for the WT and KO groups without treatment.
FIG. 16D depicts the use of embeddings for validating known effects of treatments (e.g., rapamycin and everolimus). The following figure uses the same UMAP projector calculated on tile embeddings of WT/KO with no treatment to project the embeddings representing treatment groups into the same space.

[3] = tested on: human cortical excitatory neurons; experiment: Neuropaint high-content imaging of neurons exposed to small molecule compounds, ML embeddings; details: 3 concentrations; DAPI, LV-Syn-GFP, Actin, Mito-tracker stains
Description: DoxNGN2 iPSCs were plated at two different seeding densities (1k and 6k cells) and further differentiated into human cortical excitatory neurons. Different populations of neurons were exposed to 3 different concentrations of small molecules including rotenone, everolimus, loxapine, phorbol 12-myristate 13-acetate (PMA), staurosporine, rapamycin, BIO, and blebbistatin. Neurons were also treated with controls including phosphate buffered saline and dimethyl sulfoxide (DMSO). Following treatment, phenotypic assay data was captured from the treated neurons by performing high-content imaging (e.g., Neuropaint).

SMILES	clustering in manifold by phenotypic effect (FIG. 16H) [1]	clustering in morphological embedding (FIGS. 18A, 18B) [1]	also measured
COc1ccc(-c2ccc3c(N4CCOC[C@@H]4C)nc(N4CCOC[C@@H]4C)nc3n2)cc1CO [AZD 8055]	clustered proximity to previously seen drugs		
COc1cc(C(=O)O)ccc1NC(=O)[C@@H]1N[C@@H](CC(C)(C)C)[C@](C#N)(c2ccc(Cl)cc2F)[C@H]1c1cccc(Cl)c1F [RG7388]	clustered proximity to previously seen drugs		
CC(C)c1c(C(=O)Nc2ccccc2)c(-c2ccccc2)c(-c2ccc(F)cc2)n1CC[C@@H](O)C[C@@H](O)CC(=O)O [atorvastatin]		clustered close together	
CO[C@H]1C[C@@H]2CC[C@@H](C)[C@@](O)(O2)C(=O)C(=O)N2CCCC[C@H]2C(=O)O[C@H]([C@H](C)C[C@@H]2CC[C@@H](OCCO)[C@H](OC)C2)CC(=O)[C@H](C)/C=C(\C)[C@@H](O)[C@@H](OC)C(=O)[C@H](C)C[C@H](C)/C=C/C=C/C=C/1C [everolimus]			shift of knockout cells in image embedding (FIG. 16D) [2]: induces knockout treated cells to revert back towards a healthy phenotype
CC[C@H](C)C(=O)O[C@H]1C[C@@H](C)C=C2C=C[C@H](C)[C@H](CC[C@@H]3C[C@@H](O)CC(=O)O3)[C@H]21 [lovastatin]	clustered proximity to previously seen drugs	clustered close together	
CN[C@@H]1C[C@H]2O[C@@](C)([C@@H]1OC)n1c3ccccc3c3c4c(c5c6ccccc6n2c5c31)C(=O)NC4 [staurosporine]			location of treated neurons in embeddings (FIG. 10C) [3]: located separate from neurons treated with other small compounds
